# According to patent US20120282258A1, “CRLF2 IN PRECURSOR B-CELL ACUTE LYMPHOBLASTIC LEUKEMIA” (DANA-FARBER CANCER INSTITUTE, INC., priority 2009, published 2012):
# B1: CRLF2 Phe232Cys (F232C mutant of human CRLF2) (receptor)
# chain: QGGAAEGVQIQIIYFNLETVQVTWNASKYSRTNLTFHYRFNGDEAYDQCTNYLLQEGHTSGCLLDAEQRDDILYFSIRNGTHPVFTASRWMVYYLKPSSPKHVRFSWHQDAVTVTCSDLSYGDLLYEVQYRSPFDTEWQSKQENTCNVTIEGLDAEKCYSFWVRVKAMEDVYGPDTYPSDWSEVTCWQRGEIRDACAETPTPPKPKLSKCILISSLAILLMVSLLLLSLWKLWRVKKFLIPSVPDPKSIFPGLFEIHQGNFQEWITDTQNVAHLHKMAGAEQESGPEEPLVVQLAKTEAESPRMLDPQTEEKEASGGSLQLPHQPLQGGDVVTIGGFTFVMNDRSYVAL
# notes: Expressed in BaF3 cells; also called CRLF2 F232C; CRLF2 711T>G
# B2: wild-type human cytokine receptor-like factor 2 (CRLF2) (receptor)
# chain: QGGAAEGVQIQIIYFNLETVQVTWNASKYSRTNLTFHYRFNGDEAYDQCTNYLLQEGHTSGCLLDAEQRDDILYFSIRNGTHPVFTASRWMVYYLKPSSPKHVRFSWHQDAVTVTCSDLSYGDLLYEVQYRSPFDTEWQSKQENTCNVTIEGLDAEKCYSFWVRVKAMEDVYGPDTYPSDWSEVTCWQRGEIRDACAETPTPPKPKLSKFILISSLAILLMVSLLLLSLWKLWRVKKFLIPSVPDPKSIFPGLFEIHQGNFQEWITDTQNVAHLHKMAGAEQESGPEEPLVVQLAKTEAESPRMLDPQTEEKEASGGSLQLPHQPLQGGDVVTIGGFTFVMNDRSYVAL
# notes: Expressed by retrovirus in BaF3 cells and detected by immunoblot of the cells; also called wt CRLF2; CRL2
# Columns and labels:
# [1] = test system: BaF3-CRLF2 Phe232Cys cells; test: Toxicity of agents with activity against PKC family kinases in BaF3 cells; format: cell-based, murine
# [2] = test system: BaF3 cells expressing CRLF2/mutant JAK2; test: Viability of BaF3 cells exposed to JAK inhibitor-1 for 72 hours, relative to vehicle; format: cell-based, murine; conditions: BaF3 CRLF2/mutant JAK2, no cytokines, FIG. 5
# Protocol: (§1) FIG. 5 is a graph depicting signal activation and dependence on JAK signaling. BaF3 cells that stably express BCR/ABL, CRLF2 and/or JAK2 were grown in the absence of cytokines. +IL3 indicates unmodified BaF3 cells grown in the presence of 500 pg/mL IL-3. Data represents the ratio of viable cells exposed to JAK inhibitor-1 (Calbiochem) at varying concentrations for 72 hours, compared to the same cell line exposed to vehicle. Error bars indicate one standard deviation.
# (§2) As expected, TSLP had no effect on STAT5, ERK or JAK2 phosphorylation in cells with mutant CRLF2 or JAK2 proteins.
# [3] = test system: BaF3 cells expressing CRLF2 Phe232Cys; test: as above; format: cell-based, murine; conditions: no cytokines, FIG. 5
# Protocol: as §1, §2
# [4] = test system: STAT5, ERK or JAK2 phosphorylation in cells with mutant CRLF2 or JAK2 proteins; test: Phosphorylation of STAT5, ERK and JAK2 in BaF3 cells treated with TSLP; format: cell-based, murine
# Text: In BaF3 cells, both CRLF2 Phe232Cys and CRLF2/mutant JAK2 promoted the phosphorylation of the JAK targets STAT5 and ERK.
# as §2
# [5] = test system: phospho-JAK2 in CRLF2/IL-7R cells; test: Phospho-JAK2 in CRLF2/IL-7R cells treated with TSLP; format: cell-based, murine
# Text: as §2
# [6] = test system: BaF3 cells expressing CRLF2 Phe232Cys; test: In vitro cell growth in the absence of IL-3 with TSLP added; format: cell-based, murine; conditions: TSLP 1 ng/mL added at day 0, FIG. 3
# Protocol: (§3) FIG. 3 is a group of four graphs depicting in vitro cell growth of UT7 cells and BaF cells that stably express CRLF2 and/or JAK2 alleles grown in the absence of GM-CSF (UT7) or IL-3 (BaF3). For the bottom right panel, TSLP 1 ng/mL was added at day 0, as indicated. Growth is the number of viable cells relative to the number of cells initially seeded on day 0. Error bars represent one standard deviation.
# (§4) Unlike cells that express CRLF2/IL-7R, the addition of TSLP had no effect on the growth of BaF3 cells expressing CRLF2 Phe232Cys (FIG. 3).
# [7] = test system: BaF3 cells that express CRLF2/mutant JAK2; test: as above; format: cell-based, murine
# Protocol: as §3, §4
# [8] = test system: BaF3 cells that express CRLF2 Phe232Cys/IL-7R; test: as above; format: cell-based, murine; conditions: BaF3 CRLF2 Phe232Cys/IL-7R, TSLP 1 ng/mL added at day 0, FIG. 3
# Protocol: as §3, §4
# [9] = molecular target: the molecule itself; test: immunoblot of BaF3 cells under reducing and non-reducing conditions (homodimer)
# Protocol: (§5) The CRLF2 Phe232 residue is near the junction of the extracellular and transmembrane domains. Mutations that introduce cysteine residues in this region of other receptor tyrosine kinases, such as RET, can activate signal transduction through intermolecular disulfide-bonded dimers. To confirm that CRLF2 Phe232Cys promotes constitutive dimerization, immunoblots in BaF3 cells expressing wild-type CRLF2 or CRLF2 Phe232Cys were performed under both reducing and non-reducing conditions. Under non-reducing conditions, the molecular weight of the CRLF2 Phe232Cys band, but not the wild-type band, was doubled, consistent with constitutive dimerization through the cysteine residues.
# [10] = molecular target: the molecule itself; test: immunoblot of BaF3 cells under reducing and non-reducing conditions (self-association)
# Protocol: as §5
molecule,measurement,setting,value
COC(=O)[C@@]1(O)C[C@H]2O[C@]1(C)n1c3ccccc3c3c4c(c5c6ccccc6n2c5c31)C(=O)NC4 [k252a],toxicity in BaF3-CRLF2 Phe232Cys cells as compared to BaF3 cells expressing wild-type CRLF2,[1],selective toxicity
CC(C)(C)c1nc2c3cc[nH]c(=O)c3c3cc(F)ccc3c2[nH]1 [small molecule JAK inhibitor],sensitivity of cells to JAK inhibitor (ratio of viable cells versus vehicle),[2],highly sensitive
same,sensitivity of cells to JAK inhibitor (ratio of viable cells versus vehicle),[3],highly sensitive
CN[C@@H]1C[C@H]2O[C@@](C)([C@@H]1OC)n1c3ccccc3c3c4c(c5c6ccccc6n2c5c31)C(=O)N[C@@H]4O [UCN-01],toxicity in BaF3-CRLF2 Phe232Cys cells as compared to BaF3 cells expressing wild-type CRLF2,[1],selective toxicity
"TSLP: thymic stromal lymphopoietin, cytokine ligand of the CRLF2/IL-7R heterodimer","effect of TSLP on STAT5, ERK or JAK2 phosphorylation",[4],no effect
same,phospho-JAK2 after TSLP treatment,[5],no detectable phospho-JAK2
same,effect of TSLP on cell growth,[6],no effect
same,effect of TSLP on cell growth,[7],did not promote the growth
same,effect of TSLP on cell growth,[8],promoted the growth
CO[C@@H]1[C@H](N(C)C(=O)c2ccccc2)C[C@H]2O[C@]1(C)n1c3ccccc3c3c4c(c5c6ccccc6n2c5c31)C(=O)NC4 [PKC412],toxicity in BaF3-CRLF2 Phe232Cys cells as compared to BaF3 cells expressing wild-type CRLF2,[1],selective toxicity
Cn1c2ccccc2c2c3c(c4c5ccccc5n(CCC#N)c4c21)CNC3=O [Go6976],toxicity in BaF3-CRLF2 Phe232Cys cells as compared to BaF3 cells expressing wild-type CRLF2,[1],selective toxicity
B1,binding result,[9],binds
B2,binding result,[10],no binding
